Source: ChEMBL document CHEMBL3085738, “Synthesis, structure-activity relationship and biological evaluation of 2,4,5-trisubstituted pyrimidine CDK inhibitors as potential anti-tumour agents” (Eur J Med Chem, 2013)
The source made the active and inactive calls. The calls are words filed in the database; no cut-off is given here.

How the values were obtained:
[1] = biological target: Cyclin-dependent kinase 7/ cyclin H (Homo sapiens, UniProt P50613); assay: Inhibition of CDK7/Cyclin H (unknown origin) by radiometric assay; assay type: protein-complex assay; details: read-out: Ki(app)
Chain of Cyclin-dependent kinase 7/ cyclin H (P51946 whole entry): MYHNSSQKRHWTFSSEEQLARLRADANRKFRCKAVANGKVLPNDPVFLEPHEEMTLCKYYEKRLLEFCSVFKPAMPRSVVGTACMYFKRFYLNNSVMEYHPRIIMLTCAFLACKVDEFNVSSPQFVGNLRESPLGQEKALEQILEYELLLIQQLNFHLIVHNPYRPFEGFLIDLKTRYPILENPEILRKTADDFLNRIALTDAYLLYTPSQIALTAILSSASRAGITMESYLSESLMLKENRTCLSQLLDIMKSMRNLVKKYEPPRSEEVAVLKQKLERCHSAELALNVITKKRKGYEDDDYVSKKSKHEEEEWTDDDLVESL
Chain of Cyclin-dependent kinase 7/ cyclin H (P50613 whole entry): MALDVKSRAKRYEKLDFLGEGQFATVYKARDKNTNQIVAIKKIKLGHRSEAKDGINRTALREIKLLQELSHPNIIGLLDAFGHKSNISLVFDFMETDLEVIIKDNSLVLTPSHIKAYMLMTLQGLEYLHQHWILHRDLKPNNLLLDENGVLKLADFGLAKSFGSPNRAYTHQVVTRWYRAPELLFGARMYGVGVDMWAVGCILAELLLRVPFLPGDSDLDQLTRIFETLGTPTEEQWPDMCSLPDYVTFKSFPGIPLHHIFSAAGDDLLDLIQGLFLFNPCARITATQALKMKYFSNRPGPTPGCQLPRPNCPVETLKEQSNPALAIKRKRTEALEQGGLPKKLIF

CDK2/Cyclin A2 = CDK2/Cyclin A2 (Homo sapiens, UniProt P24941); assay: Inhibition of CDK2/Cyclin A (unknown origin) by radiometric assay; assay type: protein-complex assay; details: read-out: Ki(app)
[2] = biological target: Cyclin-dependent kinase 1/cyclin B1 (Homo sapiens, UniProt P06493); assay: Inhibition of CDK1/Cyclin B (unknown origin) by radiometric assay; assay type: protein-complex assay; details: read-out: Ki(app)
Chain of Cyclin-dependent kinase 1/cyclin B1 (P06493 whole entry): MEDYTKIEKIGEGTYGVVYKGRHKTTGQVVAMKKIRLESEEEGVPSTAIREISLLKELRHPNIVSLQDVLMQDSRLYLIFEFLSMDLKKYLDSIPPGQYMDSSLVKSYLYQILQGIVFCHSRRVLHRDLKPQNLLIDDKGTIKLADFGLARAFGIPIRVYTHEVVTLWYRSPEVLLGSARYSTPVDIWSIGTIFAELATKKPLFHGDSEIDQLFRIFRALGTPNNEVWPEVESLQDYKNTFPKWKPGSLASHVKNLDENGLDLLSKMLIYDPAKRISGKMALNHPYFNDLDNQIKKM
Chain of Cyclin-dependent kinase 1/cyclin B1 (P14635 whole entry, further chain): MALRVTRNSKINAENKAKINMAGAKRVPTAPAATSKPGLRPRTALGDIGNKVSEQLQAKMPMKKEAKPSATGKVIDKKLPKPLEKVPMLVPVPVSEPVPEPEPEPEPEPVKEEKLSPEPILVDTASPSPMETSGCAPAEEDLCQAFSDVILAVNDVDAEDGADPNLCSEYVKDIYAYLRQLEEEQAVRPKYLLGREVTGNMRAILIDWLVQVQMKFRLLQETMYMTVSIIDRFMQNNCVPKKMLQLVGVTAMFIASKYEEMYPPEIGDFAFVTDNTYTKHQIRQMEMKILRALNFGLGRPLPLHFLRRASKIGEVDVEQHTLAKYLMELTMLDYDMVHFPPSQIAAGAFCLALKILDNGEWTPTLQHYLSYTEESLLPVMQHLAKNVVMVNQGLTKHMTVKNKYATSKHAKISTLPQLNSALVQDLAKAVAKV

CDK9/cyclin T1 = CDK9/cyclin T1 (Homo sapiens, UniProt P50750); assay: Inhibition of CDK9/Cyclin T1 (unknown origin) by radiometric assay; assay type: protein-complex assay; details: read-out: Ki(app)
Chain of CDK9/cyclin T1 (O60563 whole entry): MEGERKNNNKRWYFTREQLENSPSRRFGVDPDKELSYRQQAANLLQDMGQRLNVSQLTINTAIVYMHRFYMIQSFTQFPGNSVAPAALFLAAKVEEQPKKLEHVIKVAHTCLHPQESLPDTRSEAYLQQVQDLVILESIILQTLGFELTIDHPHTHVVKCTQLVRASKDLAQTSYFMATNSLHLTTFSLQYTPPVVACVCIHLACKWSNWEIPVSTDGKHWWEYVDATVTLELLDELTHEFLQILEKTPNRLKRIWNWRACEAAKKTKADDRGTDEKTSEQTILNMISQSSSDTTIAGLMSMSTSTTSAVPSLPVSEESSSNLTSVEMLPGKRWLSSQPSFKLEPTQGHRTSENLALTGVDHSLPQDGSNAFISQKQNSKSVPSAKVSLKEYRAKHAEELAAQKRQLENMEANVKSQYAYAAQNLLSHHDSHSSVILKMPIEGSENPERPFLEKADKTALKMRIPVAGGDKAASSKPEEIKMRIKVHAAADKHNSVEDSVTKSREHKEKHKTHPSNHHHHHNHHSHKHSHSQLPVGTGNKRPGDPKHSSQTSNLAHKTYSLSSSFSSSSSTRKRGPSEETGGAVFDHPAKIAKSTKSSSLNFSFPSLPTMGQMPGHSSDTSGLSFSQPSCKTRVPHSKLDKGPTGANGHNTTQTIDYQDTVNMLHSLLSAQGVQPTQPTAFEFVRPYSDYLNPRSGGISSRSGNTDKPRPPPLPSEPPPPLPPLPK
Chain of CDK9/cyclin T1 (P50750 whole entry): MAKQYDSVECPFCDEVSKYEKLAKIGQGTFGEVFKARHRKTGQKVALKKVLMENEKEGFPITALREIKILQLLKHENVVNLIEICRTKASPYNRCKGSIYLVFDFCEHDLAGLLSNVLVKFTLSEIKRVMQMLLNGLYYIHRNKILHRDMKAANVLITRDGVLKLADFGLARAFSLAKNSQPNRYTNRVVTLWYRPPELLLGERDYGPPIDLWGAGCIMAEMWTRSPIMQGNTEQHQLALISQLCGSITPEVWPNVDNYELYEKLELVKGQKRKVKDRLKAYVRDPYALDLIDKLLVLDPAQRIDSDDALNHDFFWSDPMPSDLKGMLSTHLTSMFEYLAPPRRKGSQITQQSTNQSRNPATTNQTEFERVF

MCF7 = assay: Growth inhibition of human MCF7 cells after 48 hrs by MTT assay; assay type: functional; details: MCF7, 48 h
HCT-116 = assay: Growth inhibition of human HCT116 cells after 48 hrs by MTT assay; assay type: functional; details: HCT-116, 48 h
[3] = biological target: Cyclin-dependent kinase 9 (Homo sapiens) (UniProt P50750); assay: Inhibition of CDK9 in human HCT116 cells assessed as downregulation of Mcl-1 protein expression at 1 to 5 uM after 24 hrs by Western blot analysis; assay type: cell-based; details: HCT-116
Chain of Cyclin-dependent kinase 9 (Homo sapiens) (P50750 whole entry): as above

[4] = biological target: Cyclin-dependent kinase 9 (Homo sapiens) (UniProt P50750); assay: Inhibition of CDK9 in human HCT116 cells assessed as decrease in RNAP2 CTD phosphorylation at Ser5 at 10 uM after 24 hrs by Western blot analysis; assay type: cell-based; details: HCT-116
[5] = biological target: Cyclin-dependent kinase 9 (Homo sapiens) (UniProt P50750); assay: Inhibition of CDK9 in human HCT116 cells assessed as decrease in RNAP2 CTD phosphorylation at Ser2 at 1 to 5 uM after 24 hrs by Western blot analysis; assay type: cell-based; details: HCT-116
Homo sapiens = species: Homo sapiens; assay: Selectivity ratio of Ki(app) for CDK7/Cyclin H (unknown origin) to Ki(app) for CDK9/Cyclin T1 (unknown origin)

SMILES | Ki [1] [µM] | Ki (CDK2/Cyclin A2) [µM] | Ki [2] [µM] | Ki (CDK9/cyclin T1) [µM] | GI50 (MCF7) [µM] | GI50 (HCT-116) [µM] | inhibition [3] | inhibition [4] | inhibition [5] | Ratio Ki(app) (Homo sapiens)
CNc1nc(C)c(-c2nc(Nc3cccc(C(=O)NC4CCN(C)CC4)c3)ncc2F)s1 | 0.542 | 0.231 | 0.064 | 0.036 | – | – | – | – | – | –
CNc1nc(C)c(-c2ccnc(Nc3ccc(C)c(S(=O)(=O)N4CCOCC4)c3)n2)s1 | 0.15 | 0.294 | 0.357 | 0.027 | 1.61 | 0.94 | – | – | – | –
CNc1nc(C)c(-c2nc(Nc3cccc(S(=O)(=O)NCCOC)c3)ncc2F)s1 | 0.03 | 0.006 | 0.01 | 0.003 | – | – | – | – | – | –
CNc1nc(C)c(-c2nc(Nc3cccc(C(=O)NC4CCN(C)CC4)c3)ncc2C#N)s1 | 0.163 | 0.316 | 0.262 | 0.014 | – | – | Active | Active | Active | –
CNc1nc(C)c(-c2nc(Nc3cccc(C(=O)N4CCOCC4)c3)ncc2C#N)s1 | 1.87 | 0.199 | 0.205 | – | 0.82 | 0.59 | – | – | – | 43
CNc1nc(C)c(-c2ccnc(Nc3cccc(C(=O)N4CCOCC4)c3)n2)s1 | 0.393 | 0.485 | 0.261 | 0.095 | 0.55 | 0.52 | – | – | – | –
CNc1nc(C)c(-c2nc(Nc3cccc(S(=O)(=O)NCCOC)c3)ncc2C#N)s1 | 0.18 | 0.022 | 0.034 | 0.016 | – | – | – | – | – | –
CNc1nc(C)c(-c2nc(Nc3cccc(N4CCN(C)CC4)c3)ncc2F)s1 | 0.541 | 0.041 | 0.032 | 0.007 | – | – | – | – | – | –
CNc1nc(C)c(-c2nc(Nc3cccc(C(=O)N4CCN(C)CC4)c3)ncc2C#N)s1 | 0.84 | 0.164 | 0.313 | 0.019 | 1.38 | 0.72 | – | – | – | –
CNc1nc(C)c(-c2nc(Nc3cccc(C(=O)N4CCN(C(C)=O)CC4)c3)ncc2C#N)s1 | 0.552 | 0.134 | 0.166 | 0.017 | – | – | – | – | – | –
Cc1nc(N)sc1-c1nc(Nc2cccc(N3CCN(C)CC3)c2)ncc1F | 0.476 | 0.068 | 0.065 | 0.011 | – | – | – | – | – | –
CNc1nc(C)c(-c2nc(Nc3cccc(S(=O)(=O)N4CCOCC4)c3)ncc2C#N)s1 | 0.893 | 0.055 | 0.073 | 0.014 | – | – | – | – | – | –
CNc1nc(C)c(-c2nc(Nc3cccc(S(=O)(=O)N4CCN(C)CC4)c3)ncc2C#N)s1 | 0.024 | 0.584 | 0.576 | 0.035 | – | – | – | – | – | –
CNc1nc(C)c(-c2nc(Nc3cccc(S(C)(=O)=O)c3)ncc2C#N)s1 | 0.11 | 0.043 | 0.019 | 0.005 | – | – | – | – | – | –
CNc1nc(C)c(-c2nc(Nc3ccc(C(=O)NC4CCN(C)CC4)cc3)ncc2C#N)s1 | 0.304 | 0.032 | 0.043 | 0.008 | – | – | – | – | – | –
Cc1nc(N)sc1-c1nc(Nc2cccc(S(N)(=O)=O)c2)ncc1F | 0.252 | – | – | – | – | – | – | – | – | –
CC(=O)N1CCN(c2cccc(Nc3ncc(F)c(-c4sc(N)nc4C)n3)c2)CC1 | 1.46 | 0.077 | 0.041 | 0.011 | – | – | – | – | – | –
CNc1nc(C)c(-c2nc(Nc3ccc(C)c(S(=O)(=O)N4CCOCC4)c3)ncc2F)s1 | 0.133 | 0.13 | 0.101 | 0.011 | – | – | – | – | – | –
CNc1nc(C)c(-c2nc(Nc3cc(C(=O)N4CCN(C)CC4)ccc3Cl)ncc2C#N)s1 | > 5 | > 5 | > 5 | 0.715 | – | – | – | – | – | –
